Patent EP4817594A1, “SKIN CONDITION IMPROVEMENT COMPOSITION COMPRISING GLUTATHIONE-CONTAINING EXOSOME-LIKE VESICLES” (Cosmax, Inc., priority 2023, dated 2025)
Where two headings read alike, the source gives them in different places.

Experimental: At this time, reduced glutathione was used as a standard.
Each of the diluted standard, the sample of Comparative Example 1 diluted in tertiary distilled water, the sample of Example diluted in tertiary distilled water, and the sample of Comparative Example 2 diluted in tertiary distilled water was filtered through a 0.2 µm-syringe filter, and the filtrate was put into a vial for HPLC. 10 ul was injected into a C18 column, and the samples were eluted at a flow rate of 1 ml/min, and the values were measured by using a DAD detector.

- Relative concentration of reduced glutathione (GSH) (Immediately after loading, 25 °C, light blocked): 1.00
- Relative concentration of reduced glutathione (GSH) (water, 4380 h): 0.21
- glutathione concentration compared to the initial concentration (water, 4380 h): about 20%
- Relative concentration of reduced glutathione (GSH) (water, 8766 h): 0.06
- glutathione concentration compared to the initial concentration (water, 8766 h): about 6%
SMILES: N[C@@H](CCC(=O)N[C@@H](CS)C(=O)NCC(=O)O)C(=O)O [Comparative Example 1, Glutathione]
